Laboratory results published in patent US9988381B2, “Five-member-heterocycle fused pyridine compounds, method of producing the same, and use thereof” (SHANGHAI INSTITUTE OF MATERIA MEDICA, CHINESE ACADEMY OF …, priority 2013, dated 2018).
Like-named read-outs stand apart in the source and are kept apart here.

Experiments:
[1] = target: T1, c-Met kinase domain recombinant protein (Homo sapiens, UniProt P08581); assay: biochemical; conditions: for inhibition at 10 µM: read-out: Average inhibition rate at 10 μM (%); for inhibition at 1 µM: read-out: Average inhibition rate at 1 μM (%); for inhibition at 0.1 µM: read-out: Average inhibition rate at 0.1 μM (%)
T1 construct: 50 μL diluted solution of c-Met kinase domain recombinant protein in reaction buffer was added to initiate the reaction
Protocol: (§1) Enzymatic reaction substrate Poly(Glu,Tyr)4:1 was diluted to 20 μg/mL in potassium ion free PBS (10 mM sodium phosphate buffer, 150 mM NaCl, pH7.2-7.4), microplate was coated with this solution at 125 μL per well, and reacted at 37° C. for 12-16 hours. Liquid in wells was discarded, then the plate was washed 3 times for 5 minutes each with 200 μL per well of T-PBS (PBS containing 0.1% Tween-20).
Into each well was added 50 μL diluted ATP solution in reaction buffer (50 mM HEPES pH 7.4, 50 mM MgCl2, 0.5 mM MnCl2, 0.2 mM Na3VO4, 1 mM DTT), the final concentration was 5 μM. Test compound was diluted in DMSO to proper concentration, added at 1 μL per well or corresponding level of DMSO (negative control wells), then 49 μL diluted solution of c-Met kinase domain recombinant protein in reaction buffer was added to initiate the reaction, each test was setup with two wells of ATP free control. Reaction was performed in a 37° C. shaker (100 rpm) for 1 hour. The plate was washed three times with T-PBS. Primary antibody PY99 diluted solution was added at 100 μL per well, incubated in a 37° C. shaker for 0.5 hour.
The plate was washed three times with T-PBS. Goat anti mouse secondary antibody labeled with horseradish peroxidase was added at 100 μL per well, incubated in a 37° C. shaker for 0.5 hour. The plate was washed three times with T-PBS. […] Reaction was terminated by adding 50 μL per well of 2M H2SO4, the plate was read at 490 nm using a SPECTRA MAX 190 microplate reader with tunable wavelength.
(§2) Inhibition rate of the sample was calculated using the following equation: […]
IC50 was calculated by fitting the data for a four parameter fit using inhibition curve.

[2] = target: T1, c-Met kinase domain recombinant protein; assay: biochemical; conditions: read-out: Inhibition rate at 10 μM (%)
Protocol: as §1, with “discarded. Plate washing:” for “discarded, then”, “(potassium ion free PBS” for “(PBS”
Into each well was added 49 μL diluted ATP solution in reaction buffer (50 mM HEPES pH 7.4, 50 mM MgCl2, 0.5 mM MnCl2, 0.2 mM Na3VO4, 1 mM DTT), and 1 μL per well of compound to be tested was added, then 50 μL diluted solution of c-Met kinase domain recombinant protein in reaction buffer was added to initiate the reaction, each test was setup with two wells of ATP free control. Reaction was performed in a 37° C. shaker (100 rpm) for 1 hour. Liquid in the wells was discarded, and the plate was washed three times with T-PBS.
Antibody PY99 was added at 100 μL per well (the antibody was 1:500 diluted in T-PBS containing 5 mg/mL BSA), incubated in a 37° C. shaker for 0.5 hour. Liquid in the wells was discarded, and the plate was washed three times with T-PBS.
Goat anti mouse secondary antibody labeled with horseradish peroxidase was added at 100 μL per well (the antibody was 1:2000 diluted in T-PBS containing 5 mg/mL BSA), incubated in a 37° C. shaker for 0.5 hour. Liquid in the wells was discarded, and the plate was washed three times with T-PBS.
Reaction was terminated by adding 50 μL per well of 2M H2SO4, the plate was read at 490 nm using a VERSAmax microplate reader with tunable wavelength.
as §2

T1 sequence (P08581 1078-1345 limits assumed): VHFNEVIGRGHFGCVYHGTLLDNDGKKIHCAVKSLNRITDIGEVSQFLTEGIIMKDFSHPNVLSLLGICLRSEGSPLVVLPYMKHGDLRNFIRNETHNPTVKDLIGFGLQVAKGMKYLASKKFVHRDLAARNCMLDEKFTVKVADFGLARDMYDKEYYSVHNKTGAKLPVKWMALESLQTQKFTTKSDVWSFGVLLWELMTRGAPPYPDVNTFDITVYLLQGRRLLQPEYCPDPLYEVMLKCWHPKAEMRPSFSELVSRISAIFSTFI

SMILES | inhibition at 10 µM [1] [%] | inhibition at 10 µM [2] [%] | inhibition at 1 µM [1] [%] | inhibition at 0.1 µM [1] [%] | IC50 [1] [nM]
Cn1cc(-c2cnc3ccn(S(=O)(=O)c4ccccc4[N+](=O)[O-])c3c2)cn1 [Compound 1, 1-(2-nitrobenzenesulfonyl)-6-[(1-methyl)-4-pyrazolyl]-1-H-pyrrolo[3,2-b]pyridine] | 88.1 | 88.1 |  |  | 
Cn1cc(-c2cnc3[nH]nc(S(=O)(=O)c4ccccc4[N+](=O)[O-])c3c2)cn1 [Compound 2, 3-(2-nitrobenzenesulfonyl)-5-[(1-methyl)-4-pyrazolyl]-1-H-pyrazolo[3,4-b]pyridine] | 92.8 | 92.8 | 7 |  | 
Cn1cc(-c2cnc3cnn(S(=O)(=O)c4ccccc4[N+](=O)[O-])c3c2)cn1 [Compound 3, 1-(2-nitrobenzenesulfonyl)-6-[(1-methyl)-4-pyrazolyl]-1-H-pyrazolo[4,3-b]pyridine] | 84.6 | 84.6 |  |  | 
Cn1cc(-c2cnc3cnn(S(=O)(=O)c4ccccc4)c3c2)cn1 [Compound 4, 1-benzenesulfonyl-6-[(1-methyl)-4-pyrazolyl]-1-H-pyrazolo[4,3-b]pyridine] | 44.1 | 44.1 |  |  | 
Cn1cc(-c2cnc3cnn(S(=O)(=O)c4cccc(F)c4)c3c2)cn1 [Compound 5, 1-(3-fluorobenzenesulfonyl)-6-[(1-methyl)-4-pyrazolyl]-1-H-pyrazolo[4,3-b]pyridine] | 57.5 | 57.5 | 33.8 | 2.1 | 
Cn1cc(-c2cnc3cnn(S(=O)(=O)c4ccccc4F)c3c2)cn1 [Compound 6, 1-(2-fluorobenzenesulfonyl)-6-[(1-methyl)-4-pyrazolyl]-1-H-pyrazolo[4,3-b]pyridine] | 34.4 | 34.4 |  |  | 
Cn1cc(-c2cnc3cnn(S(=O)(=O)c4ccc(F)cc4)c3c2)cn1 [Compound 7, 1-(4-fluorobenzenesulfonyl)-6-[(1-methyl)-4-pyrazolyl]-1-H-pyrazolo[4,3-b]pyridine] | 40.7 | 40.7 |  |  | 
O=S(=O)(c1c[nH]c2ncc(-c3cccc(Cl)c3)cc12)n1ncc2cccnc21 [Example 109, 1-[(3-chlorophenyl)-1-H-pyrrolo[2,3-b]pyridine-3-sulfonyl]-1-H-pyrazolo[3,4-b]pyridine] |  |  | 40 |  | 
O=S(=O)(c1c[nH]c2ncc(-c3ccc(N4CCOCC4)cc3)cc12)n1ncc2cccnc21 [Example 110, 1-[(4-morpholinylphenyl)-1-H-pyrrolo[2,3-b]pyridine-3-sulfonyl]-1-H-pyrazolo[3,4-b]pyridine] |  |  | 13.5 |  | 
Cn1cc(-c2cnc3cnn(S(=O)(=O)c4cccc5ccccc45)c3c2)cn1 [Example 111, 1-(naphthalene-1-sulfonyl)-6-[(1-methyl)-4-pyrazolyl]-1-H-pyrazolo[4,3-b]pyridine] |  |  | 63.3 | 28.6 | 
Cn1cc(-c2cnc3cnn(S(=O)(=O)c4ccc5ccccc5c4)c3c2)cn1 [Example 112, 1-(naphthalene-2-sulfonyl)-6-[(1-methyl)-4-pyrazolyl]-1-H-pyrazolo[4,3-b]pyridine] |  |  | 48.8 |  | 
Nc1ccc2ncc(S(=O)(=O)n3ncc4ncc(-c5cc(Cl)cc(Cl)c5)cc43)n2c1 [Example 114, 1-[(6-amino-imidazo[1,2-a]pyridine)-3-sulfonyl]-6-(3,5-dichlorophenyl)-1-H-pyrazolo[4,3-b]pyridine] |  |  | 30.4 |  | 
O=[N+]([O-])c1ccc2ncc(S(=O)(=O)n3ncc4ncc(-c5ccc(C(F)(F)F)cc5)cc43)n2c1 [Example 115, 1-[(6-nitro-imidazo[1,2-a]pyridine)-3-sulfonyl]-6-(4-trifluoromethylphenyl)-1-H-pyrazolo[4,3-b]pyridine] |  |  | 95.7 | 46.6 | 
O=[N+]([O-])c1ccc2ncc(S(=O)(=O)n3ncc4ncc(-c5cc(F)c(F)c(F)c5)cc43)n2c1 [Example 116, 1-[(6-nitro-imidazo[1,2-a]pyridine)-3-sulfonyl]-6-(3,4,5-trifluorophenyl)-1-H-pyrazolo[4,3-b]pyridine] |  |  | 84.6 | 70.8 | 3.6 ± 0.6
Nc1ccc2ncc(S(=O)(=O)n3ncc4ncc(-c5ccccc5)cc43)n2c1 [Example 117, 1-[(6-amino-imidazo[1,2-a]pyridine)-3-sulfonyl]-6-phenyl-1-H-pyrazolo[4,3-b]pyridine] |  |  | 15.8 |  | 
Nc1ccc2ncc(S(=O)(=O)n3ncc4ncc(-c5ccc(F)cc5)cc43)n2c1 [Example 118, 1-[(6-amino-imidazo[1,2-a]pyridine)-3-sulfonyl]-6-(4-fluorophenyl)-1-H-pyrazolo[4,3-b]pyridine] |  |  | 75.5 | 62.7 | 
CCCCNc1ccc2ncc(S(=O)(=O)n3ncc4ncc(-c5cnn(C)c5)cc43)n2c1 [Example 119, 1-[(6-n-butylamino-imidazo[1,2-a]pyridine)-3-sulfonyl]-6-[(1-methyl)-4-pyrazolyl]-1-H-pyrazolo[4,3-b]pyridine] |  |  | 26.4 |  | 
CC(=O)Nc1ccc2ncc(S(=O)(=O)n3ncc4ncc(-c5cnn(C)c5)cc43)n2c1 [Example 120, 1-[(6-acetylamino-imidazo[1,2-a]pyridine)-3-sulfonyl]-6-[(1-methyl)-4-pyrazolyl]-1-H-pyrazolo[4,3-b]pyridine] |  |  | 28.7 |  | 
COc1ccc2ncc(S(=O)(=O)n3ncc4ncc(-c5cncc6ccccc56)cc43)n2c1 [Example 122, 1-[(6-methoxy-imidazo[1,2-a]pyridine)-3-sulfonyl]-6-(4-isoquinolinyl)-1-H-pyrazolo[4,3-b]pyridine] |  |  | 100 | 72.9 | 190 ± 32.7
COc1ccc2cc(-c3cnc4cnn(S(=O)(=O)c5cnc6ccc(OC)cn56)c4c3)ccc2c1 [Example 123, 1-[(6-methoxy-imidazo[1,2-a]pyridine)-3-sulfonyl]-6-(6-methoxy-2-naphthyl)-1-H-pyrazolo[4,3-b]pyridine] |  |  | 99.3 | 87 | 51.5 ± 6
COc1ccc2ncc(S(=O)(=O)n3ncc4ncc(-c5cccc(C(F)(F)F)c5)cc43)n2c1 [Example 125, 1-[(6-methoxy-imidazo[1,2-a]pyridine)-3-sulfonyl]-6-(3-trifluoromethylphenyl)-1-H-pyrazolo[4,3-b]pyridine] |  |  | 99.3 | 84.5 | 55.2 ± 5.6
O=S(=O)(c1cnc2ccc(O)cn12)n1ncc2ncc(-c3ccccc3)cc21 [Example 127, 1-[(6-hydroxy-imidazo[1,2-a]pyridine)-3-sulfonyl]-6-phenyl-1H-pyrazolo[4,3-b]pyridine] |  |  | 99 | 93.9 | 30 ± 3.3
CCOC(=O)c1cnc2cnn(S(=O)(=O)c3cnc4ccc(Br)cn34)c2c1 [Example 130, 1-[(6-bromo-imidazo[1,2-a]pyridine)-3-sulfonyl]-6-ethoxycarbonyl-1-H-pyrazolo[4,3-b]pyridine] |  |  | 90.8 | 16.1 | 
O=C(Nc1cnc2cnn(S(=O)(=O)c3cnc4ccc(Br)cn34)c2c1)c1ccccc1 [Example 131, 1-[(6-bromo-imidazo[1,2-a]pyridine)-3-sulfonyl]-6-benzamido-1-H-pyrazolo[4,3-b]pyridine] |  |  | 83.6 | 75.1 | 
COc1cccc(C(=O)Nc2cnc3cnn(S(=O)(=O)c4cnc5ccc(OC)cn45)c3c2)c1 [Example 134, 1-[(6-methoxy-imidazo[1,2-a]pyridine)-3-sulfonyl]-6-(3-methoxybenzamido)-1-H-pyrazolo[4,3-b]pyridine] |  |  | 56.9 | 66.8 | 
